Results taken from patent US6387605B1, “Co-developers for black-and-white photothermographic elements” (Eastman Kodak Company, priority 1999, dated 2002).

Assay: Solubility of co-developers in coating solvents (Example 5)
Format: physicochemical
Procedure: Solubility of Co-developers: In order for the co-developer to perform effectively, some quantity of the co-developer must be soluble in the coating solvent for the emulsion layer or topcoat layer. 2-Butanone MEK) and methanol are typical solvents for these layers. Solubility will vary depending on the structure of the co-developer, the composition of the layer containing the co-developer, and the solvents employed.
The photothermographic elements of this invention typically require from 10 mg to 100 mg of co-developer in 40 g of photothermographic emulsion in 25 g 2-butanone in order to achieve high contrast. The photothermographic emulsions are held at 50° F. (10° C.). As this is below room temperature, the solubility is below that of the co-developer at room temperature.
The solubility of co-developer CI-03 in 25 g of 2-butanone (MEK) and in 25 g of methanol was determined.

For `O=C1NC(=O)C(=CO)C(=O)N1` [CI-03, 5-(Hydroxymethylone)-2,4,5(1H3H,5H)-pyrimdine-trione], the “Solubility in MEK” value (2.5 mg in 25 g 2-butanone, room temperature) was “Soluble at room temperature”, the “Solubility in MEK” value (5.0 mg in 25 g 2-butanone, 90° F. (32° C.)) was “Soluble at 90° F. (32° C.)” and the “Solubility in MEK” value (5.0 mg in 25 g 2-butanone, room temperature) was “Insoluble at room temperature”. The “Solubility in MeOH” value (5 mg in 25 g methanol, room temperature) was “Soluble at room temperature”, the “Solubility in MEK” value (12.5 mg in 25 g 2-butanone, 90° F. (32° C.)) was “Insoluble at 90° F. (32° C.)” and the “Solubility in MeOH” value (12.5 mg in 25 g methanol, 90° F. (32° C.)) was “Soluble at 90° F. (32° C.)”. The “Solubility in MeOH” value (12.5 mg in 25 g methanol, room temperature) was “Insoluble at room temperature”, the “Solubility in MEK” value (25 mg in 25 g 2-butanone, 90° F. (32° C.)) was “Insoluble at 90° F. (32° C.)” and the “Solubility in MeOH” value (25 mg in 25 g methanol, 90° F. (32° C.)) was “Soluble at 90° F. (32° C.)”. For the same compound, the “Solubility in MeOH” value (25 mg in 25 g methanol, room temperature) was “Insoluble at room temperature” and the “Solubility in organic solvents” value (Example 1, sample 1-28) was “Compound CI-03 was insoluble in organic solvents”.
